This note sets out measurements from ChEMBL document CHEMBL5346922, “Discovery of phenylcarbamoyl xanthone derivatives as potent neuroprotective agents for treating ischemic stroke” (Eur J Med Chem, 2023).

Calls of active or inactive are those of the source. No cut-off for these calls is given here.

Data set [1] has as its system PC-12. In words: Neuroprotective activity against glutamate induced excitotoxicity in rat PC12 cells assessed as cell survival at 160 uM pretreated with glutamate for 24 hrs followed by compound addition and measured after 24 hrs. Format: functional. As to conditions: read-out: Survival.
Data set [2] deals with PC-12. The data set can be described thus: Neuroprotective activity in rat PC12 cells assessed as protection against glutamate induced excitotoxicity at 160 uM pretreated with glutamate for 24 hrs followed by compound addition and measured after 24 hrs. The class given is functional.
Data set [3] relates to PC-12. In words: Cytotoxicity against rat PC12 cells assessed as reduction in cell viability incubated for 24 hrs by MTT assay. The class given is functional, cell-based. The settings on record: PC-12, 24 h. On the technique in general: Tetrazolium assays rely on reduction of a dye to a coloured formazan, in cell work by metabolically active cells.
Data set [4] relates to PC-12. In words: Neuroprotective activity against glutamate induced excitotoxicity in rat PC12 cells assessed as cell survival at 20 uM pretreated with glutamate for 24 hrs followed by compound addition and measured after 24 hrs. Format: functional. The settings on record: read-out: Survival.
The subject of data set [5] is PC-12. In words: Neuroprotective activity in rat PC12 cells assessed as protection against glutamate induced excitotoxicity at 20 uM pretreated with glutamate for 24 hrs followed by compound addition and measured after 24 hrs. The class given is functional.
Data set [6] concerns PC-12. The data set can be described thus: Neuroprotective activity against H2O2-induced oxidative damage in rat PC12 cells assessed as increase in cell survival at 20 uM pretreated with H2O2 for 24 hrs followed by compound addition and measured after 24 hrs. Format: functional. The settings on record: read-out: Survival.
The test system of data set [7] is PC-12. In words: Neuroprotective activity against H2O2-induced oxidative damage in rat PC12 cells at 20 uM pretreated with H2O2 for 24 hrs followed by compound addition and measured after 24 hrs. Format: functional.
Data set [8] concerns PC-12. In words: Neuroprotective activity against glutamate induced excitotoxicity in rat PC12 cells pretreated with glutamate for 24 hrs followed by compound addition and measured after 24 hrs. The class given is functional, cell-based.
In data set [9] the test system is PC-12. The data set can be described thus: Neuroprotective activity against H2O2-induced oxidative damage in rat PC12 cells pretreated with H2O2 for 24 hrs followed by compound addition and measured after 24 hrs. The class given is functional, cell-based.
Data set [10] deals with PC-12. In words: Cytotoxicity against rat PC12 cells assessed as reduction in cell viability at 80 uM incubated for 24 hrs by MTT assay. The class given is functional.
Data set [11] can be described thus: Acute toxicity in Sprague-Dawley rat assessed as animal death at 4000 mg/kg, po measured for 24 hrs. Format: organism-based. The settings on record: in vivo.
Data set [12] relates to Rattus norvegicus. In words: Neuroprotective activity against middle cerebral artery occlusion induced ischemia stroke Sprague-Dawley rat model assessed as Zea-longa score at 60 mg/kg, po measured after 24 hrs (reference value: 2.33 +/- 0.47). The class given is functional.
The subject of data set [13] is Rattus norvegicus. In words: Neuroprotective activity against middle cerebral artery occlusion induced ischemia stroke Sprague-Dawley rat model assessed as decrease in cerebral infarction area at 60 mg/kg, ip measured after 24 hrs by TTC staining based microscopic assay (reference value: 15.91 +/- 9.06 %). Format: functional. More on the design: scale not given: the % may be the effect or the level left.

Data set [14] concerns Rattus norvegicus. The data set can be described thus: Neuroprotective activity against middle cerebral artery occlusion induced ischemia stroke Sprague-Dawley rat model assessed as decrease in brain water content at 60 mg/kg, ip measured after 24 hrs (reference value: 83.17 +/- 2.40%). The arrangement: scale not given: the % may be the effect or the level left. The class given is functional.

Data set [15] relates to Rattus norvegicus. In words: Neuroprotective activity against middle cerebral artery occlusion induced ischemia stroke Sprague-Dawley rat model assessed as reduction in TNF-alpha level in serum at 20 to 60 mg/kg, ip measured after 24 hrs by ELISA analysis. Format: functional, organism-based. As to conditions: dose 20-60 mg/kg. A general note: ELISA stands for enzyme-linked immunosorbent assay.

Data set [16] relates to Rattus norvegicus. The data set can be described thus: Neuroprotective activity against middle cerebral artery occlusion induced ischemia stroke Sprague-Dawley rat model assessed as reduction in IL-1beta level in serum at 20 to 60 mg/kg, ip measured after 24 hrs by ELISA analysis. The class given is functional, organism-based. The settings on record: dose 20-60 mg/kg.
Data set [17] relates to Rattus norvegicus. The data set can be described thus: Neuroprotective activity against middle cerebral artery occlusion induced ischemia stroke Sprague-Dawley rat model assessed as increase in serum SOD level at 20 to 60 mg/kg, ip measured after 24 hrs. The class given is functional, organism-based. The settings on record: dose 20-60 mg/kg.
In data set [18] the test system is Rattus norvegicus. The data set can be described thus: Neuroprotective activity against middle cerebral artery occlusion induced ischemia stroke Sprague-Dawley rat model assessed as […] in serum MDA level at 20 to 60 mg/kg, ip measured after 24 hrs. As to conditions: dose 20-60 mg/kg. The class given is functional, organism-based.
Data set [19] relates to Rattus norvegicus. The data set can be described thus: Neuroprotective activity against middle cerebral artery occlusion induced ischemia stroke Sprague-Dawley rat model assessed as Zea-longa score at 20 mg/kg, po measured after 24 hrs (reference value: 2.17+/- 0.37). The class given is functional.
For data set [20], the system named is PC-12. The data set can be described thus: Neuroprotective activity against glutamate induced excitotoxicity in rat PC12 cells assessed as cell survival at 25 uM pretreated with glutamate for 24 hrs followed by compound addition and measured after 24 hrs. The settings on record: read-out: Survival. Format: functional.

As to `CC12CC3CC(C)(C1)CC(N)(C3)C2` [MEMANTINE], the viability at 160 µM in data set [1] came to 63%. The Activity in data set [2] came to 46.85%.
Take `COc1c(OC(=O)N(C)c2ccccc2)cc2oc3cc4c(c(O)c3c(=O)c2c1CC=C(C)C)C=CC(C)(C)O4`: in data set [3], the IC50 (commonly the concentration needed to halve the response being measured) was 3.3 µM. Moreover, the viability at 20 µM was found to be 68.6% in data set [4] and 78.9% in [6]. Moreover, the Activity is given as 54.79% in data set [5]; 52.62% in data set [7]; “Non-Toxic” in [11]; 1.67 in data set [12]; 1.78% in [13]; 77.41% in data set [14]. Further, the EC50 – broadly, the concentration needed to bring the measured effect to its halfway point – came out at 16.1 µM in data set [8] and 19.3 µM in [9]. In addition, in [10], the outcome was inactive. The result in data set [15], in [16], in [17] and in data set [18] was Active.
Regarding `CCCCC1OC(=O)c2ccccc21` (stereo not drawn) [RAC-3-N-BUTYLPHTHALIDE], the Activity in data set [19] amounted to 1.33; in [13], 1.64%; in [14], 82.2%.
On to `COc1c(OC(=O)N(C)c2ccccc2)cc2oc3c(CN(C)C)c4c(c(O)c3c(=O)c2c1CC=C(C)C)C=CC(C)(C)O4`, for which, in data set [3], the IC50 is 5 µM. In addition, the Activity in [10] came out at 90%.
In the case of `N[C@@H](CCC(=O)O)C(=O)O` [GLUTAMIC ACID], the viability at 25 µM in [20] came to 30.5%.
